# Source: US20090036466A1, “AMINO-BENZIMIDAZOLES DERIVATIVES AS INHIBITORS OF RESPIRATORY SYNCYTIAL VIRUS REPLICATION” (priority 2003, published 2009)
# Structures can show the parent of a compound that is named as a salt.
# Tested on: Respiratory Syncytial Virus
# Experiment: microbe, parasite or virus in culture
# Assay type: cell-based
# Settings: human respiratory syncytial virus, 168 h; protection against RSV cytopathology in HeLa cells, MTT read-out seven days after infection; pEC50 = -log of EC50 in molar units
# Experimental: The percent protection against cytopathology caused by viruses (antiviral activity or EC50) achieved by tested compounds and their cytotoxicity (CC50) are both calculated from dose-response curves.
# Automated tetrazolium-based […] assays were used for determination of EC50 and CC50 of test compounds. Flat-bottom, 96-well plastic microtiter trays were filled with 180 μl of Eagle's Basal Medium, supplemented with 5% FCS (0% for FLU) and 20 mM Hepes buffer. Subsequently, stock solutions (7.8× final test concentration) of compounds were added in 45 μl volumes to a series of triplicate wells so as to allow simultaneous evaluation of their effects on virus- and mock-infected cells. Five five-fold dilutions were made directly in the microtiter trays using a robot system. Untreated virus controls, and HeLa cell controls were included in each test. Approximately 100 TCID50 of Respiratory Syncytial Virus was added to two of the three rows in a volume of 50 μl. The same volume of medium was added to the third row to measure the cytotoxicity of the compounds at the same concentrations as those used to measure the antiviral activity. After two hours of incubation, a suspension (4×10^5 cells/ml) of HeLa cells was added to all wells in a volume of 50 μl. The cultures were incubated at 37° C. in a 5% CO2 atmosphere. Seven days after infection the cytotoxicity and the antiviral activity was examined spectrophotometrically. To each well of the microtiter tray, 25 μl of a solution of MTT (3-(4,5-dimethylthiazol-2-yl)-2,5-diphenyltetrazolium bromide) was added. The trays were further incubated at 37° C. for 2 hours, after which the medium was removed from each cup. Solubilization of the formazan crystals was achieved by adding 100 μl 2-propanol. Complete dissolution of the formazan crystals were obtained after the trays have been placed on a plate shaker for 10 min. Finally, the absorbances were read in an eight-channel computer-controlled photometer (Multiskan MCC, Flow Laboratories) at two wavelengths (540 and 690 nm). The absorbance measured at 690 nm was automatically subtracted from the absorbance at 540 nm, so as to eliminate the effects of non-specific absorption.
row,SMILES,EC50
1,"Cc1cc(C)c2nc(NCCC(N)=O)n(Cc3nc(C)ccc3O)c2c1 [Compound 8, 3-[1-(3-hydroxy-6-methyl-pyridin-2-ylmethyl)-4,6-dimethyl-1H-benzoimidazol-2-ylamino]-propionamide]",158 nM
2,"CCOC(=O)CCNc1nc2c(C)cc(C)cc2n1Cc1nc(C)ccc1O [Compound 12, 3-[1-(3-hydroxy-6-methylpyridin-2-ylmethyl)-4,6-dimethyl-1H-benzoimidazol-2-ylamino]-propionic acid ethyl ester]",3160 nM
3,"Cc1cc(C)c2nc(NCC(O)CO)n(Cc3nc(C)ccc3O)c2c1 (stereo not drawn) [Compound 4, 3-[1-(3-hydroxy-6-methyl-pyridin-2-ylmethyl)-4,6-dimethyl-1H-benzoimidazol-2-ylamino]-propane-1,2-diol]",39.8 nM
4,"Cc1cc(C)c2nc(NCCCO)n(Cc3nc(C)ccc3O)c2c1 [Compound 7, 2-[2-(3-hydroxypropylamino)-4,6-dimethyl-benzoimidazol-1-ylmethyl]-6-methyl-pyridin-3-ol]",158 nM
5,"Cc1cc(C)c2nc(Nc3ccc(CN)cc3)n(Cc3nc(C)ccc3O)c2c1 [Compound 9, 2-[2-(4-aminomethyl-phenylamino)-4,6-dimethyl-benzoimidazol-1-ylmethyl]-6-methyl-pyridin-3-ol]",251 nM
6,"Cc1cc(C)c2nc(NCCCN3CCCCC3)n(Cc3nc(C)ccc3O)c2c1 [Compound 1, 2-[4,6-dimethyl-2-(3-piperidin-1-yl-propylamino)-benzoimidazol-1-ylmethyl]-6-methyl-pyridin-3-ol]",20 nM

# Tested on: not given
# Experiment: not given
# Settings: not given
row,melting point,SMILES
1,255 °C,"Cc1cc(C)c2nc(Nc3ccc(CN)cc3)n(Cc3nc(C)ccc3O)c2c1 (as salt: salt) [Compound 9, 2-[2-(4-aminomethyl-phenylamino)-4,6-dimethyl-benzoimidazol-1-ylmethyl]-6-methyl-pyridin-3-ol]"
2,229 °C,"Cc1cc(C)c2nc(NCCC(N)=O)n(Cc3nc(C)ccc3O)c2c1 (as salt: salt) [Compound 8, 3-[1-(3-hydroxy-6-methyl-pyridin-2-ylmethyl)-4,6-dimethyl-1H-benzoimidazol-2-ylamino]-propionamide]"
3,170 °C,"Cc1cc(C)c2nc(NCCCO)n(Cc3nc(C)ccc3O)c2c1 (as salt: salt) [Compound 7, 2-[2-(3-hydroxypropylamino)-4,6-dimethyl-benzoimidazol-1-ylmethyl]-6-methyl-pyridin-3-ol]"
4,180 °C,"CCOC(=O)CCNc1nc2c(C)cc(C)cc2n1Cc1nc(C)ccc1O (as salt: salt) [Compound 12, 3-[1-(3-hydroxy-6-methylpyridin-2-ylmethyl)-4,6-dimethyl-1H-benzoimidazol-2-ylamino]-propionic acid ethyl ester]"
5,> 260 °C,"Cc1cc(C)c2nc(NCCCN3CCCCC3)n(Cc3nc(C)ccc3O)c2c1 (as salt: salt) [Compound 1, 2-[4,6-dimethyl-2-(3-piperidin-1-yl-propylamino)-benzoimidazol-1-ylmethyl]-6-methyl-pyridin-3-ol]"
6,205 °C,"Cc1cc(C)c2nc(NCC(O)CO)n(Cc3nc(C)ccc3O)c2c1 (stereo not drawn) (as salt: salt) [Compound 4, 3-[1-(3-hydroxy-6-methyl-pyridin-2-ylmethyl)-4,6-dimethyl-1H-benzoimidazol-2-ylamino]-propane-1,2-diol]"
